Several values for one entry are separate records, joined by “and”; a condition that tells them apart may be missing. Equal values may be shown once. Inconclusive results and toxic doses are left out. How the source made its calls: active means survival T/C of 150% or more; inactive means T/C below 125% in these data.
Tested on: CD2F1 mice, L1210 leukemia ip, survival T/C
Test: NCI In Vivo Anticancer Drug Screen. Data for tumor model L1210 Leukemia (intraperitoneal) in CD2F1 (CDF1) mice
Conditions: endpoint: mean survival time, higher = longer survival
Method in brief: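 Activity against a transplanted murine tumor was judged by comparing the compound group with a vehicle group. The outcome in the treated animals was divided by that in the controls.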

[1] = dose: 50.0 mg/kg/injection, schedule: Q01DX009 (ip), vehicle: saline with Tween-80
[2] = dose: 100.0 mg/kg/injection, schedule: Q01DX009 (ip), vehicle: saline with Tween-80
[3] = dose: 200.0 mg/kg/injection, schedule: Q01DX009 (ip), vehicle: saline with Tween-80
[4] = dose: 100.0 mg/kg/injection, schedule: Q01DX001 (ip), vehicle: saline with Tween-80
[5] = dose: 200.0 mg/kg/injection, schedule: Q01DX001 (ip), vehicle: saline with Tween-80
[6] = dose: 400.0 mg/kg/injection, schedule: Q01DX001 (ip), vehicle: saline with Tween-80
[7] = dose: 100.0 mg/kg/injection, schedule: Q04DX003 (ip), vehicle: Klucel (hydroxypropylcellulose) (HPC)
[8] = dose: 200.0 mg/kg/injection, schedule: Q04DX003 (ip), vehicle: Klucel (hydroxypropylcellulose) (HPC)
[9] = dose: 400.0 mg/kg/injection, schedule: Q01DX009 (ip), vehicle: saline with Tween-80
[10] = dose: 100.0 mg/kg/injection, schedule: Q04DX003 (ip), vehicle: saline
[11] = dose: 50.0 mg/kg/injection, schedule: Q01DX009 (ip), vehicle: Klucel (hydroxypropylcellulose) (HPC)
[12] = dose: 100.0 mg/kg/injection, schedule: Q01DX009 (ip), vehicle: Klucel (hydroxypropylcellulose) (HPC)
[13] = dose: 200.0 mg/kg/injection, schedule: Q01DX009 (ip), vehicle: Klucel (hydroxypropylcellulose) (HPC)
[14] = dose: 100.0 mg/kg/injection, schedule: Q04DX003 (ip), vehicle: saline with Tween-80
[15] = dose: 200.0 mg/kg/injection, schedule: Q04DX003 (ip), vehicle: saline with Tween-80
[16] = dose: 400.0 mg/kg/injection, schedule: Q04DX003 (ip), vehicle: Klucel (hydroxypropylcellulose) (HPC)

Measured: T/C

CSc1nc(=O)n(C2OC(CO)C(O)C2O)nc1SCc1ccccc1 (stereo not drawn)
inactive: dose: 12.5 mg/kg/injection, schedule: Q01DX005 (ip), vehicle: distilled water + Tween-80 94 % of control | dose: 25.0 mg/kg/injection, schedule: Q01DX005 (ip), vehicle: distilled water + Tween-80 94 % of control | dose: 50.0 mg/kg/injection, schedule: Q01DX005 (ip), vehicle: distilled water + Tween-80 92 % of control

Cc1cc(NC(=O)CCc2ccc(N3C(N)=NC(N)=NC3(C)C)cc2)ccc1S(=O)(=O)F
inactive: dose: 0.8 mg/kg/injection, schedule: Q01DX015 (ip), vehicle: water 112 % of control | dose: 4.0 mg/kg/injection, schedule: Q01DX015 (ip), vehicle: water 98 % of control | dose: 20.0 mg/kg/injection, schedule: Q01DX015 (ip), vehicle: water 101 % of control | dose: 100.0 mg/kg/injection, schedule: Q01DX015 (ip), vehicle: water 110 % of control | dose: 500.0 mg/kg/injection, schedule: Q01DX015 (ip), vehicle: water 113 % of control

Cc1ccc(S(=O)(=O)NCCC(=O)Nc2ccccc2)cc1
inactive: dose: 50.0 mg/kg/injection, schedule: Q01DX009 (ip), vehicle: water 86 % of control | dose: 100.0 mg/kg/injection, schedule: Q01DX009 (ip), vehicle: water 86 % of control | dose: 200.0 mg/kg/injection, schedule: Q01DX009 (ip), vehicle: water 93 % of control

O=C1C=CC(=O)N1c1ccc(Oc2ccc(Cl)cc2)cc1
inactive: [1] 103 % of control | [2] 107 % of control | [3] 88 % of control

CCCCOC(=O)c1cnc[nH]c1=O
inactive: [4] 95 % of control | [5] 93 % of control | [6] 96 % of control

O=C1c2ccccc2-c2cc([N+](=O)[O-])c(Cl)cc21
inactive: dose: 50.0 mg/kg/injection, schedule: Q04DX003 (ip), vehicle: Klucel (hydroxypropylcellulose) (HPC) 91 % of control | [7] 96 % of control | [8] 94 % of control

COC(=O)C(C(=O)OC)C(Br)(OC(C)=O)OC(C)=O
inactive: [2] 97 % of control | [3] 104 % of control | [9] 109 % of control

c1cncc(CCc2cccnc2)c1
inactive: [10] 100 % of control | dose: 200.0 mg/kg/injection, schedule: Q04DX003 (ip), vehicle: saline 100 % of control

CN(C)c1ccc(C(=O)CCN2CC=C(c3ccccc3)CC2)cc1
inactive: dose: 100.0 mg/kg/injection, schedule: Q04DX002 (ip), vehicle: saline with Tween-80 102 % of control

COC(=O)C1=CCC[N+](C)(C)C1
inactive: dose: 1.56 mg/kg/injection, schedule: Q04DX002 (ip), vehicle: saline 93 % of control | dose: 3.13 mg/kg/injection, schedule: Q04DX002 (ip), vehicle: saline 93 % of control | dose: 6.25 mg/kg/injection, schedule: Q04DX002 (ip), vehicle: saline 93 % of control and 105 % of control

Cc1ccccc1SCCC(=O)O
inactive: dose: 12.5 mg/kg/injection, schedule: Q01DX009 (ip), vehicle: saline with Tween-80 101 % of control | dose: 25.0 mg/kg/injection, schedule: Q01DX009 (ip), vehicle: saline with Tween-80 102 % of control | [1] 101 % of control | [2] 97 % of control

O=C1/C(=C\c2ccccc2)C2CCC(C2)/C1=C\c1ccccc1
inactive: [4] 91 % of control | [5] 88 % of control | [6] 97 % of control

C=CCC(C(=O)O)(c1ccccc1)c1ccccc1
inactive: [11] 95 % of control | [12] 98 % of control | [13] 98 % of control

Nc1nc(N)c2c(n1)NCN(CCc1cccc(Cl)c1)C2
inactive: dose: 0.75 mg/kg/injection, schedule: Q01DX009 (ip), vehicle: distilled water + Tween-80 96 % of control | dose: 1.5 mg/kg/injection, schedule: Q01DX009 (ip), vehicle: distilled water + Tween-80 100 % of control | dose: 3.0 mg/kg/injection, schedule: Q01DX009 (ip), vehicle: distilled water + Tween-80 98 % of control | dose: 6.0 mg/kg/injection, schedule: Q01DX009 (ip), vehicle: distilled water + Tween-80 96 % of control | dose: 12.0 mg/kg/injection, schedule: Q01DX009 (ip), vehicle: distilled water + Tween-80 94 % of control | dose: 24.0 mg/kg/injection, schedule: Q01DX009 (ip), vehicle: distilled water + Tween-80 94 % of control

COc1ccc(N2CSC(=S)N(c3ccc(OC)cc3)C2)cc1
inactive: dose: 100.0 mg/kg/injection, schedule: Q04DX003 (ip), vehicle: other 94 % of control

Nc1nc[nH]c(=O)c1N
inactive: [4] 107 % of control | [5] 107 % of control | [6] 102 % of control

Cc1cc(-c2ccccc2)c2c(C#N)cn(-c3ccccc3)c2n1
inactive: dose: 100.0 mg/kg/injection, schedule: Q01DX001 (ip), vehicle: saline 87 % of control | dose: 200.0 mg/kg/injection, schedule: Q01DX001 (ip), vehicle: saline 92 % of control | dose: 400.0 mg/kg/injection, schedule: Q01DX001 (ip), vehicle: saline 92 % of control

Nc1cccc(N2N=C(C(=O)O)CC2=O)c1
inactive: [2] 90 % of control | [14] 103 % of control | [3] 91 % of control | [15] 103 % of control | [9] 91 % of control | dose: 400.0 mg/kg/injection, schedule: Q04DX003 (ip), vehicle: saline with Tween-80 101 % of control

CCOC(=O)C(C(=O)OCC)N(Cc1ccccc1)Cc1ccccc1
inactive: dose: 12.5 mg/kg/injection, schedule: Q01DX009 (ip), vehicle: other 93 % of control | dose: 25.0 mg/kg/injection, schedule: Q01DX009 (ip), vehicle: other 93 % of control | dose: 50.0 mg/kg/injection, schedule: Q01DX009 (ip), vehicle: other 96 % of control | dose: 100.0 mg/kg/injection, schedule: Q01DX009 (ip), vehicle: other 93 % of control | dose: 200.0 mg/kg/injection, schedule: Q01DX009 (ip), vehicle: other 90 % of control

O=C1C(c2ccccc2)=S=C2Sc3ccccc3N12
inactive: [7] 102 % of control | [8] 103 % of control | [16] 96 % of control

CC1(C)COC(=O)N1
inactive: dose: 75.0 mg/kg/injection, schedule: Q01DX009 (ip), vehicle: saline with Tween-80 104 % of control | [10] 108 % of control | dose: 150.0 mg/kg/injection, schedule: Q01DX009 (ip), vehicle: saline with Tween-80 101 % of control

Cn1cc(C2OC(CO)C(O)C2O)c(=O)[nH]c1=O (stereo not drawn)
inactive: dose: 12.5 mg/kg/injection, schedule: Q01DX005 (ip), vehicle: water 97 % of control | dose: 25.0 mg/kg/injection, schedule: Q01DX005 (ip), vehicle: water 103 % of control | dose: 50.0 mg/kg/injection, schedule: Q01DX005 (ip), vehicle: water 103 % of control | dose: 100.0 mg/kg/injection, schedule: Q01DX005 (ip), vehicle: water 100 % of control | dose: 200.0 mg/kg/injection, schedule: Q01DX005 (ip), vehicle: water 103 % of control

Nc1nc2c(ncn2-c2ccc(NC(=O)c3cccc(S(=O)(=O)F)c3)cc2)c(=O)[nH]1
inactive: dose: 37.5 mg/kg/injection, schedule: Q04DX002 (ip), vehicle: saline with Tween-80 90 % of control | dose: 75.0 mg/kg/injection, schedule: Q04DX002 (ip), vehicle: saline with Tween-80 111 % of control | dose: 150.0 mg/kg/injection, schedule: Q04DX002 (ip), vehicle: saline with Tween-80 94 % of control

COc1cc(OC)c(NC(=O)OCCOc2ccc([N+](=O)[O-])cc2)cc1Cl
inactive: [1] 90 % of control | [2] 86 % of control | [3] 97 % of control

COc1ccc(NC(=O)Nc2c(C)n(C)n(-c3ccccc3)c2=O)c(Cl)c1
inactive: [11] 95 % of control | [12] 95 % of control | [7] 104 % of control | [13] 95 % of control | [8] 104 % of control | [16] 104 % of control

O=C1c2ccccc2C(=O)N1c1ccc(Cl)cc1
inactive: dose: 100.0 mg/kg/injection, schedule: Q01DX001 (ip), vehicle: Klucel (hydroxypropylcellulose) (HPC) 92 % of control | dose: 200.0 mg/kg/injection, schedule: Q01DX001 (ip), vehicle: Klucel (hydroxypropylcellulose) (HPC) 96 % of control | dose: 400.0 mg/kg/injection, schedule: Q01DX001 (ip), vehicle: Klucel (hydroxypropylcellulose) (HPC) 107 % of control

Cc1ncoc1C(=O)O
inactive: [14] 109 % of control | [15] 104 % of control

CC(=O)Nc1cccc2ccccc12
inactive: [2] 95 % of control | [3] 97 % of control
